The test concerns the target T1, Ubiquitin carboxyl-terminal hydrolase 19 (Homo sapiens, UniProt O94966).
T1 sequence (O94966 whole entry): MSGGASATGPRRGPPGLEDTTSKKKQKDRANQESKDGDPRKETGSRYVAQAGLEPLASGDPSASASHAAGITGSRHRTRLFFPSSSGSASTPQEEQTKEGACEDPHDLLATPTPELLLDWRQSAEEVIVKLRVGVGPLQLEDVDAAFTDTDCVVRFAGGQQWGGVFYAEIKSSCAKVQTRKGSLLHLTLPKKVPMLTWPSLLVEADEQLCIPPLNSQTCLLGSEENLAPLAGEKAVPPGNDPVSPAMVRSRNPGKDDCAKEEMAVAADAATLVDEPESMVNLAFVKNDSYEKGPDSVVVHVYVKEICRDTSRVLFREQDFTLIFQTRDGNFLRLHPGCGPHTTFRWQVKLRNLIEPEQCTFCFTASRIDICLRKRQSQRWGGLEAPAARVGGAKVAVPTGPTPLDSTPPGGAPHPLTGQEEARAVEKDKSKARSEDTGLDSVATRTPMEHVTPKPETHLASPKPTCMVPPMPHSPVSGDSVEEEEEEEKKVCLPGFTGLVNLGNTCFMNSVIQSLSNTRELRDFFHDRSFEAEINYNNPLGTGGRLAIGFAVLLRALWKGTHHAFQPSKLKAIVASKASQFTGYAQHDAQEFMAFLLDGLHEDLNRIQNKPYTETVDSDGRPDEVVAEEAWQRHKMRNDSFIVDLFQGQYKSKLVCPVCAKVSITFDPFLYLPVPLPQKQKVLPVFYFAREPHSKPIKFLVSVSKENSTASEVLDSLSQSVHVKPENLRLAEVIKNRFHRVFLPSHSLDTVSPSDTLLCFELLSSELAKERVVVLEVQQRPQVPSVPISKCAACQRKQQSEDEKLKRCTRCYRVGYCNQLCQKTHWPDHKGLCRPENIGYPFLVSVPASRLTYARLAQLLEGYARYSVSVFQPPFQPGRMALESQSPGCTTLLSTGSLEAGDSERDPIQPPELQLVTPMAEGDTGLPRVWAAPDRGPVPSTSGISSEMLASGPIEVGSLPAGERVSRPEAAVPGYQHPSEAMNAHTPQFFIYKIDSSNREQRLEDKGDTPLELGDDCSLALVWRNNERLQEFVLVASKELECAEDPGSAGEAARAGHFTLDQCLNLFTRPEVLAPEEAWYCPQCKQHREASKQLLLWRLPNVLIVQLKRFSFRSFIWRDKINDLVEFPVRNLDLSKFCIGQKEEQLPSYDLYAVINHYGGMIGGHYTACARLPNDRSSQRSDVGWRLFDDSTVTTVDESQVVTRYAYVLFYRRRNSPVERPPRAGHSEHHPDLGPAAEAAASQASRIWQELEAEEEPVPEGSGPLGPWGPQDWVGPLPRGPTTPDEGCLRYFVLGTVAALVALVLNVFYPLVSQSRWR
Put plainly: Fluorescence Polarization (FP) Homogeneous Assay. As to the method:
Unless otherwise stated, all other reagents were purchased from Sigma. Enzymatic reactions were conducted in black flat bottom polystyrene 384-well plates (Nunc) and 30 μL total volume. […] Inhibitors were stored as 10 mM DMSO stocks in an inert environment (low humidity, dark, low oxygen, room temperature) using the Storage Pod System and serial dilutions were prepared in buffer just prior to the assay (from 200 μM to 2 pM, 8-18 data point curve). Following incubation at rt for 30 min, the enzymatic reactions were initiated by dispensing the Ub substrate (500 nM, 10 μL). FP was measured every 15 min over a period of 90 min (within the linear range of the assay) using a Synergy 4 plate reader (BioTek) exciting at 530 nm and measuring the amount of parallel and perpendicular light at 575 nm. The FP signal was subsequently normalized to the no compound control.
On the technique in general: Fluorescence polarisation rises when a labelled molecule tumbles more slowly, as on binding a larger partner.

A value given as a limit tells only on which side of the number the result lay.

Broadly, the IC50 is the concentration at which inhibition is half-maximal.

In the case of `O=C1CN(c2ccccc2)CCN1CC1(O)CCN(C(=O)NCc2ccccc2)CC12CCCC2` (configuration not stated) [US11807646, Example 109], the IC50 was less than 500 nM.

In the case of `CS(C)(=O)=Nc1cn(CC2(O)CCN(C(=O)N3CCNC[C@H]3c3ccccc3)CC23CCCC3)c(=O)cc1-c1ccccc1` (some centres not stated) [US11807646, Example 191], the half-maximal inhibitory concentration (IC50) is less than 500 nM.

With `O=C(N1CC[C@@](O)(Cn2ncc(-c3ccccc3)cc2=O)C2(CCCC2)C1)N1CCOC[C@H]1c1ccccc1` [US11807646, Example 280], the half-maximal inhibitory concentration (IC50) was less than 500 nM.

As to `CN(C)c1cc(=O)n(C[C@]2(O)CCN(C(=O)N3CCNC[C@H]3c3ccccc3)CC23CCCC3)cn1` [US11807646, Example 318], the concentration for half-maximal inhibition (IC50) was less than 500 nM.

For the molecule `O=C(N1CCC(O)(Cn2cnc(-c3ccccc3)cc2=O)C2(CCOCC2)C1)N1CCNC[C@H]1c1ccccc1` (some centres not stated) [US11807646, Example 321], the half-inhibitory concentration (IC50) is less than 500 nM.

For `O=C(N1CC[C@@](O)(Cn2cc(F)c(-c3ccccc3)cc2=O)C2(CCCC2)C1)N1CCNC[C@H]1c1ccccc1` [US11807646, Example 331], the IC50 was less than 500 nM.

In the case of `O=C(N1CC[C@@](O)(Cn2cnc(-c3ccccc3)cc2=O)C2(CCCC2)C1)N1CC[S+]([O-])CC1c1ccccc1` (some centres not stated) [US11807646, Example 337], the IC50 is less than 500 nM.

The values are drawn from BindingDB's records for patent US11807646 (Almac Discovery, 2023).
